Measured values published in BindingDB's records for patent US12110286 (Cancer Research Technology, 2024).

Target: B-cell lymphoma 6 protein (Homo sapiens, UniProt P41182)
Assay: HTRF In Vitro Assay
Method: The % inhibition at each concentration was calculated by normalising FRET ratio to the appropriate high (DMSO with all reagents) and low (DMSO without BCL6) controls.

IC50: 324 nM
Compound: Cn1c(=O)n(CCC(C)(C)O)c2cc(Nc3nc(N4CCC(Cn5cccn5)CC4)ncc3Cl)ccc21 [US12110286, Example 35zb]
